Measurements as given in patent US5474984A, “Horseshoe crab amebocyte lysate factor G activation inhibitor” (priority 1988, dated 1995).

Assays:
[1] = test system: factor G; experiment: Operating mechanism experiment: inhibition of the factor G pathway with varied sequence of addition; type: biochemical, horseshoe crab; conditions: factor G activated by A before inhibitor
Text: (§1) A reaction mixture of the following composition was used. Two hundred microliters of the reaction mixture contained 5 micrograms of a factor G activation inhibitor (laminariheptaose; sample No. 10; abbreviated as I), 3 pg of a factor G activating substance (GPC fraction of sonicated Curdlan; sample No. 106; abbreviated as A), 20 microliters of a factor G fraction (abbreviated as G) and 30 microliters of a proclotting enzyme fraction (abbreviated as P) prepared from LAL by the method described in T. Obayashi et al., Clin. Chim. Acta, 149, 55-65 (1985), 20 μmoles of Tris-HCl buffer (pH 8.0), 20 μmoles of MgCl2 and 0.13 μmole of a chromogenic substrate Boc-Leu-Gly-Arg-pNA (abbreviated as S).
(§2) In each of Runs 1 to 5, the sequence of adding the ingredients and the incubating conditions were varied, and the degree of inhibition of the factor G pathway was measured and determined in comparison with a control in which no inhibitor was added.

[2] = target: T1, factor G (Tachypleus tridentatus, UniProt Q27082); experiment: as above; type: biochemical, horseshoe crab; conditions: 5 micrograms inhibitor
T1 construct: prepared from LAL by the method described in T. Obayashi et al; from tissue; host or cells: horseshoe crab amebocyte lysate (LAL), factor G fraction
T1 sequence (Q27082 20-673): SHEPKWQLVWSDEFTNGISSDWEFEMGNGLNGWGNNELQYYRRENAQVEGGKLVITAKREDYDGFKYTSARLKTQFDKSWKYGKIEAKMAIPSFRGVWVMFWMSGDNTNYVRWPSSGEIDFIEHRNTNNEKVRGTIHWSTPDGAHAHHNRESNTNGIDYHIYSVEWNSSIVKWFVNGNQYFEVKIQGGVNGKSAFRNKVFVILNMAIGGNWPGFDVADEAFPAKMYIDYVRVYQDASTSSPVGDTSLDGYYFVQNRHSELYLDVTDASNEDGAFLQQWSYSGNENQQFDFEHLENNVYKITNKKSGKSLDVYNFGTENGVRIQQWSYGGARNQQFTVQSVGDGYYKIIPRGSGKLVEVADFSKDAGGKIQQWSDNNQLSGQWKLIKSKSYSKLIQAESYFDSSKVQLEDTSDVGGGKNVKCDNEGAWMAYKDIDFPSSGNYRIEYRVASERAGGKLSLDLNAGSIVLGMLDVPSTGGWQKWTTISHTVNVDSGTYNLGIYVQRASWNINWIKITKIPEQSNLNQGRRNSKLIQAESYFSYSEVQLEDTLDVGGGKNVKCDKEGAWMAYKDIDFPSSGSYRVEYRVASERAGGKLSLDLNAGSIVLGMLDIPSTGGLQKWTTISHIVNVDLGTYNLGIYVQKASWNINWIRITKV
T1 sequence (Q27083 32-309 partner): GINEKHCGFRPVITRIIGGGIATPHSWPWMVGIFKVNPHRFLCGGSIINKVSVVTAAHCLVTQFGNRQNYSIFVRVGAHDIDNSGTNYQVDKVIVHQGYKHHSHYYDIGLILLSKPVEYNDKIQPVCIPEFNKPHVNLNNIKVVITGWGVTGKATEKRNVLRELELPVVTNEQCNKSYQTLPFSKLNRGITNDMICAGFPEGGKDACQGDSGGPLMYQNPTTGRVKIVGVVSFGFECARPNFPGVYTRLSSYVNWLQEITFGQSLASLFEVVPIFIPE
Text: as §1, §2

[3] = target: T2, factor G fraction of LAL (Tachypleus tridentatus, UniProt Q27082); experiment: Method of measuring the titer of the activity of a factor G activation inhibitor (GI); type: biochemical, T. tridentatus; conditions: 10 pg factor G activating substance (sample No. 106), 37° C. 30 minutes; 100% inhibition = 100 units
T2 construct: Prepared from horseshoe crab, T. tridentatus; from tissue; host or cells: horseshoe crab amebocyte lysate (LAL), factor G fraction
T2 sequence (Q27082 20-673): T1 sequence (Q27082 20-673)
T2 sequence (Q27083 32-309 partner): T1 sequence (Q27083 32-309 partner)
Protocol: The factor G activation inhibiting titer was measured by the "method of measuring the titer of the activity of a factor G activation inhibitor" described below and expressed in units/mg.
Method of measuring the titer of the activity of a factor G activation inhibitor (sometimes abbreviated as GI):
Two hundred microliters of the reaction mixture contained the following materials. […]
The above reaction mixture was incubated at 37° C. for 30 minutes, and 0.5 ml each of 0.04% sodium nitrite (0.48M HCl solution), 0.3% ammonium sulfamate, and 0.07% N-(1-naphthyl)ethylenediamine dihydrochloride were successively added, and its color was changed by diazo coupling. The amount of pNA liberated was measured as the absorbance at 545 nm (A545).
The GI activity was calculated from the following equation. [formula]
The amount of GI which inhibited activation of factor G by GA under these conditions to an extent of 100% is defined as 100 units.
A sample which is water-insoluble is used after it is dissolved in 0.3M NaOH, and neutralized with an equal volume of 0.3M HCl.
A GPC fractionated pure sample of the sonicated product of Curdlan which was prepared in Preparation Example 5 (Table 2, sample No. 106 having a molecular weight of 216,000).
Prepared from horseshoe crab, T. tridentatus, inhabiting the coast of Japan in accordance with the method described in T. Obayashi et al., Clin. Chim. Acta, 149, 55-65 (1985).

| Structure (SMILES) | Factor G activation inhibiting titer [3] | other results |
| --- | --- | --- |
| OCC1OC(OC2C(O)C(CO)OC(OC3C(O)C(CO)OC(OC4C(O)C(CO)OC(OC5C(O)C(CO)OC(OC6C(O)C(CO)OC(OC7C(O)C(O)OC(CO)C7O)C6O)C5O)C4O)C3O)C2O)C(O)C(O)C1O (stereo not drawn) [compound 10, Laminariheptaose] | 103,000 units/mg | Inhibition rate (%) to the control ([1]; Run 4 (sequence drawing 14)): 1.7%; Inhibition rate (%) to the control ([1]; Run 5 (sequence drawing 15)): 0%; Inhibition rate (%) to the control ([2]; Run 1 (sequence of addition drawing 11), 3 pg activating substance sample No. 106): 100%; Inhibition rate (%) to the control ([2]; Run 2 (sequence drawing 12), 3 pg activating substance): 100%; Inhibition rate (%) to the control ([2]; Run 3 (sequence drawing 13), 3 pg activating substance): 100% |
| OC[C@H]1O[C@@H](O[C@H]2[C@H](O)[C@@H](CO)OC(O)[C@@H]2O)[C@H](O)[C@@H](O)[C@@H]1O (stereo partly drawn) [compound 5, Laminasiribose] | 214 units/mg | – |
| OC[C@H]1O[C@@H](O[C@@H]2[C@@H](O)[C@H](O[C@H]3[C@H](O)[C@@H](CO)OC(O)[C@@H]3O)O[C@H](CO)[C@H]2O)[C@H](O)[C@@H](O)[C@@H]1O (stereo partly drawn) [compound 6, Laminaritriose] | 4,670 units/mg | – |
| OC[C@H]1O[C@@H](O[C@@H]2[C@@H](O)[C@H](O[C@@H]3[C@@H](O)[C@H](O[C@@H]4[C@@H](O)[C@H](O[C@@H]5[C@@H](O)[C@H](O[C@H]6[C@H](O)[C@@H](CO)OC(O)[C@@H]6O)O[C@H](CO)[C@H]5O)O[C@H](CO)[C@H]4O)O[C@H](CO)[C@H]3O)O[C@H](CO)[C@H]2O)[C@H](O)[C@@H](O)[C@@H]1O (stereo partly drawn) [compound 9, Laminarihexaose] | 55,000 units/mg | – |
| OC[C@H]1OC(O)[C@H](O)[C@@H](O)[C@@H]1O (stereo partly drawn) [compound 108, Glucose, reference compound] | < 100 units/mg | – |
| OC[C@H]1O[C@@H](O[C@@H]2[C@@H](O)[C@H](O[C@@H]3[C@@H](O)[C@H](O[C@@H]4[C@@H](O)[C@H](O[C@H]5[C@H](O)[C@@H](CO)OC(O)[C@@H]5O)O[C@H](CO)[C@H]4O)O[C@H](CO)[C@H]3O)O[C@H](CO)[C@H]2O)[C@H](O)[C@@H](O)[C@@H]1O (stereo partly drawn) [compound 8, Laminaripentaose] | 39,800 units/mg | – |
| OC[C@H]1O[C@@H](O[C@@H]2[C@@H](O)[C@H](O[C@@H]3[C@@H](O)[C@H](O[C@H]4[C@H](O)[C@@H](CO)OC(O)[C@@H]4O)O[C@H](CO)[C@H]3O)O[C@H](CO)[C@H]2O)[C@H](O)[C@@H](O)[C@@H]1O (stereo partly drawn) [compound 7, Laminaritetraose] | 20,000 units/mg | – |
